Results: the NIST ThermoML archive (doi:10.1016/j.tca.2007.10.001)
Numbers after ± are expanded uncertainties.

Experiments:
[1] = Crystal; DTA
[2] = Molar enthalpy of transition or fusion; details: Crystal
[3] = molar heat capacity at constant pressure; details: 101.33 kPa, Crystal

c1cnc2c(c1)ccc1cccnc12 [1,10-phenanthroline]
Details | Molar enthalpy of transition or fusion [kcal/mol] | Triple point temperature [K]
[1] | – | 391.1 ± 0.6
[2] | 2.82 ± 0.884 | –

[3]
Details | molar heat capacity at constant pressure [J/K/mol]
298.2 K | 115 ± 37
300.2 K | 116 ± 37
302.2 K | 117 ± 37
304.2 K | 125 ± 40
306.2 K | 127 ± 41
308.2 K | 133 ± 43
310.2 K | 140 ± 45
312.2 K | 150 ± 48
314.2 K | 156 ± 50
316.2 K | 165 ± 53
318.2 K | 175 ± 56
320.2 K | 184 ± 59
322.2 K | 192 ± 61
324.2 K | 199 ± 64
326.2 K | 206 ± 66
328.2 K | 213 ± 68
330.2 K | 221 ± 71
332.2 K | 226 ± 72
334.2 K | 235 ± 75
336.2 K | 237 ± 76
338.2 K | 245 ± 78
340.2 K | 247 ± 79
342.2 K | 253 ± 81
344.2 K | 253 ± 81
346.2 K | 256 ± 82
348.2 K | 260 ± 83
350.2 K | 263 ± 84
352.2 K | 265 ± 85
354.2 K | 270 ± 86
356.2 K | 271 ± 87
358.2 K | 276 ± 88
360.2 K | 279 ± 89

Cc1ccc2ccc3ccc(C)nc3c2n1 [2,9-dimethyl-1,10-phenanthroline]
Details | Molar enthalpy of transition or fusion [kcal/mol] | Triple point temperature [K]
[1] | – | 435.9 ± 1
[2] | 4.21 ± 1.2 | –

[3]
Details | molar heat capacity at constant pressure [J/K/mol]
298.2 K | 253 ± 81
303.2 K | 274 ± 88
308.2 K | 292 ± 93
313.2 K | 306 ± 98
318.2 K | 321 ± 100
323.2 K | 331 ± 110
328.2 K | 345 ± 110
333.2 K | 354 ± 110
338.2 K | 361 ± 120
343.2 K | 370 ± 120
348.2 K | 373 ± 120
353.2 K | 374 ± 120
358.2 K | 383 ± 120
363.2 K | 383 ± 120
368.2 K | 387 ± 120
373.2 K | 384 ± 120
378.2 K | 386 ± 120
383.2 K | 390 ± 120
388.2 K | 386 ± 120
393.2 K | 383 ± 120
